Measurements: paper PMC11325555, “Interaction of Bisphenol A and Its Analogs with Estrogen and Androgen Receptor from Atlantic Cod (Gadus morhua)” (Environmental Science & Technology, 2024)
“Also recorded” adds a separate entry of the source. Where two headings read alike, the source gives them in different places.

Assays:
human Era = system: human Era; design: method as in PMID 15635150; conditions: cited from earlier work
[1] = molecular target: T1, Atlantic cod estrogen receptor alpha (gmEra) LBD (Gadus morhua, UniProt U5ILH7); assay: Luciferase reporter gene assay, gmEra antagonism (antiestrogenic activity), coexposure with 3 nM EE2; format: cell-based; conditions: coexposure with EE2 (3 nM, EC20)
T1 sequence (U5ILH7 170-455): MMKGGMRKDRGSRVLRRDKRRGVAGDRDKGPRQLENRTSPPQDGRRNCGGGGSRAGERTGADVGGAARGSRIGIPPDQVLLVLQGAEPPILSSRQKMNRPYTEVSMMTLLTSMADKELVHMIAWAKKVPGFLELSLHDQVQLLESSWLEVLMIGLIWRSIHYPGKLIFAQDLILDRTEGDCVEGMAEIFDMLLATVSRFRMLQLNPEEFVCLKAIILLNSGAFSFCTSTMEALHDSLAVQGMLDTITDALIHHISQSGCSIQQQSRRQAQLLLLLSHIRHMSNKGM
Description: (§1) Ligand activation of gmEra and gmAra was studied with a luciferase reporter gene assay in COS-7 cells transiently transfected with the pCMX-GAL4(DBD)-gmEra(LBD) or pCMX-GAL4(DBD)-gmAra(LBD) plasmid by using the TransIT-LT1 reagent (TransIT-LT1 Transfection Reagent, Mirus). Cells were seeded into 96-well plates (5000 cells/well) and incubated for 24 h before cotransfection with the plasmid mixture (100 ng/well). The plasmid mixture contained GAL4-UAS luciferase reporter plasmid (tk-(MH100)x4 luc), the pCMX-GAL4(DBD)-gmEra(LBD) or pCMX-GAL4(DBD)-gmAra(LBD) receptor plasmids (2:1 reporter:receptor plasmid mass ratio), and a plasmid constitutively producing the β-galactosidase enzyme used for normalization of transfection efficiency (pCMV- β-Gal). […] The maximum DMSO/methanol concentrations in the exposure wells were 0.5% (v/v) in DMEM medium without phenol red (Sigma-Aldrich). After exposure, cells were lysed, and luciferase and beta-galactosidase activities were measured as luminescence and absorbance (420 nm) after the addition of luciferin and ONPG substrates, respectively, using an Enspire Multimode plate reader (PerkinElmer, Waltham, Massachusetts, USA).
To investigate potential antiestrogenic effects, COS-7 cells transiently expressing gmEra LBD were exposed to the 12 bisphenols in binary mixtures with a fixed concentration of EE2 (3 nM, corresponding to EC20) (Figure 2 and Table 1).
(§2) The dose–response curves were created using nonlinear regression and the four-parameter logistic fit in Graphpad Prism v.9. *p < 0.05 versus solvent control by ANOVA and Dunnett’s multiple comparison post hoc test.

[2] = molecular target: T2, Atlantic cod androgen receptor alpha (gmAra) LBD (Gadus morhua, UniProt D5FIC7); assay: Luciferase reporter gene assay, gmAra agonism (androgenic activity) in transfected COS-7 cells
T2 sequence (D5FIC7 409-718): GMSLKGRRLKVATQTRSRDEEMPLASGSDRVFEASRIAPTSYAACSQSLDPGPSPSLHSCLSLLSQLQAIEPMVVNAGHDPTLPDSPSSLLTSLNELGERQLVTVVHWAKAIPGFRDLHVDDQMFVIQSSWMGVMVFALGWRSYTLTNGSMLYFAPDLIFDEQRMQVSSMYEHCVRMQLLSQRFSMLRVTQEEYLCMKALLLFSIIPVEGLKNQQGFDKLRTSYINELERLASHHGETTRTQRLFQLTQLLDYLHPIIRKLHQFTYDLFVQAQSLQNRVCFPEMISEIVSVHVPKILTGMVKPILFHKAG
Description: as §1
Figure 3 Androgenic activity of bisphenols. COS-7 cells were transiently transfected with gmAra LBD and exposed individually to 12 bisphenol analogs at increasing concentrations. […] The dose–response curves were created using nonlinear regression and the four-parameter logistic fit in Graphpad Prism v.9. For comparison, the dose–response curve of BPA (black line) is indicated together with each individual BP tested (red line). *p < 0.05 versus solvent control by one-way ANOVA and Dunnett’s multiple comparison post hoc test.

Er [3] = system: Er; design: method as in doi:10.11403/jset.11.133; conditions: medaka; cited from earlier work
[4] = molecular target: T2, Atlantic cod androgen receptor alpha (gmAra) LBD; assay: Luciferase reporter gene assay, gmAra antagonism (antiandrogenic activity), coexposure with 5 nM testosterone; format: cell-based
Description: as §1, §2

Er [5] = system: Er; design: method as in PMID 12651187; conditions: carp; cited from earlier work
[6] = molecular target: T1, Atlantic cod estrogen receptor alpha (gmEra) LBD; assay: Luciferase reporter gene assay, gmEra agonism (estrogenic activity) in transfected COS-7 cells
Description: as §1
Luciferase reporter gene assays were established with COS-7 cells transiently producing the LBD of gmEra (Figure S1) for evaluating the estrogenic potential of 12 bisphenols.
COS-7 cells transiently transfected with gmEra-LBD were exposed to EE2 (open circles), BPA (black circles), and 11 different BPA analogs (red squares and as indicated) at increasing concentrations. Responses are presented as mean fold activation in luciferase activity in comparison to solvent-exposed cells ± SEM from three independent experiments with three technical replicates (n = 9). The dose–response curves were created using nonlinear regression and the four parameter logistic fit in Graphpad Prism v.9. For comparison, the dose–response curve of BPA (black line) is indicated together with each individual BP tested (red line). *p < 0.05 versus solvent control by one-way ANOVA and Dunnett’s multiple comparison post hoc test.

EC50 [2]: 25700 nM
maximal fold induction ([2]; COS-7, monkey, 24 h, read-out: gmAra Emax): 1.6
gmAra REP50 (relative potency EC50, EC50-bisphenol A/EC50-bisphenol X) ([2]; relative to BPA): 1.0
IC50 ([4]; gmAra IC50, in the presence of 5 nM testosterone (EC20)): 140 nM
maximal fold induction ([6]; COS-7, monkey, 24 h, read-out: gmEra Emax): 19.4
gmEra Emax ([6]; fold activation in luciferase activity vs solvent control, 24 h exposure, * = statistically significant, a = plateau not reached, highest fold activation obtained, 1440 min): 19 fold activation
EC50 ([6]; gmEra EC50, four-parameter logistic fit, 24 h exposure): 1900 nM
gmEra REP50 (relative potency EC50, EC50-bisphenol A/EC50-bisphenol X) ([6]; relative to BPA): 1.0
SMILES: CC(C)(c1ccc(O)cc1)c1ccc(O)cc1 [BPA, Bisphenol A]
EC50 (human Era): 630 nM
antiestrogenic effect on gmEra, result in words [1]: did not antagonize gmEra; also recorded: no antiestrogenic effects
EC50 (Er [3]): 590 nM
effect on testosterone-mediated gmAra activity, result in words ([4]; BPs 0.003–50 μM with 5 nM testosterone): significantly decrease the testosterone-mediated Ara-activity
EC50 (Er [5]): 26000 nM
